Data as given in patent publication US9968624B2, “Depression treatment agent” (THE UNIVERSITY OF TOKYO, priority 2014, dated 2018).

Tests used:
[1] = tested on: mice (C57BL/6 strain, male); assay: Forced swim test (5S-ManNAcF, ManNAc, intracerebroventricular administration, 3 weeks); type: in vivo, mouse; details: 0.1 mmol/L in saline, intracerebroventricular by osmotic pump for 3 weeks, vs saline
Procedure: Using 8-9-week-old mice (C57BL/6 strain, male) having a catheter transplanted in the cerebroventricle, and carrying a connected osmotic pump (0.11 μl/hr, Alzet, No1004, 100 μl is released in 28 days) on the back, 5S-ManNAcF (0.01, 0.1 mmol/L) or ManNAc (100 mmol/L) dissolved in saline was intracerebroventricularly administered for 3 weeks (administration group: each 9-10 mice). The mice of the control group in the same age in weeks were administered with saline (control group: each 9-10 mice, SAL).
A forced swim test similar to that in Example 1 was performed at 3 weeks after administration.

[2] = tested on: mice (C57BL/6 strain, male); assay: Forced swim test (5S-ManNAcF intracerebroventricular administration, one week); type: in vivo, mouse
Procedure: Similar to Example 3, 5S-ManNAcF (0.01, 0.1, 1 mmol/L administration group: each 9-10 mice) was administered intracerebroventricularly. The dosing period was one week. The mice of the control group in the same age in weeks were administered with saline (control group: each 9-10 mice, SAL).
A forced swim test similar to that in Example 1 was performed at 1 week after administration.

[3] = tested on: mice (C57BL/6 strain, male); assay: Forced swim test (ManNAc oral administration); type: in vivo, mouse; details: juvenile mice (10- to 14-week-old), 5 mg/ml in drinking water for 4 weeks, 6 min test; control group about 2 min
Procedure: ManNAc was dissolved in drinking water, and drinking water having a concentration of 5 mg/ml was administered to juvenile mice (C57BL/6 strain, male) by administration by free drinking of water for 4 weeks in total from 10-week-old to 14-week-old (ManNAc administration group: 16 mice). The mice of the control group in the same age in weeks were allowed to take drinking water freely (control group: 16 mice).
Similarly, 5 mg/ml ManNAc-containing drinking water was administered to aged mice (C57BL/6 strain, male) by administration by free drinking of water for 4 weeks in total from […] (ManNAc administration group: 14 mice). The mice of the control group in the same age in weeks were allowed to take drinking water freely (control group: 15 mice).
According to the method described in S. C. […] The mice were graded with regard to 4 evaluation criteria: swimming, immobility, climbing, and others, and a dominant behavior was recorded every 5 sec. […]
When a mouse is forcibly placed in a water pool, it tries to swim to the shore. […] The forced swim test for 6 min enables quantification of immobility in a water tank, and the immobility has been proposed to be similar to “behavioral despair”, observed in depression.

[4] = tested on: juvenile mice (C57BL/6 strain, male); assay: Social defeat test; type: in vivo, mouse; details: defeat stress experience mice, 5 mg/ml in drinking water for 4 weeks, latter 3 min of 5 min
Procedure: Under conditions similar to those in Example 1, ManNAc was administered to juvenile mice (C57BL/6 strain, male) by administration by free drinking of water for 4 weeks in total from 10-week-old to 14-week-old (ManNAc administration group: 14 mice). The mice of the control group in the same age in weeks were allowed to take drinking water freely (control group: 14 mice).
A mouse that lived with a more aggressive mouse (aggressive mouse) for a given period (1 hr) stays away from the aggressive mouse thereafter. This test method reflects higher brain functions, and was developed as a social defeat test and widely utilized as a system for evaluating social anxiety (Nature (2008) 455, 894-902). The ManNAc administration group and the control group were made to stay together with an aggressive mouse (one-to-one) for 1 hr per day, and the defeat stress was imposed for 5 days. […] The number of times the defeat stress experience mouse intruded a contact zone formed on the periphery of the compartment in which the aggressive mouse was housed, and the sniffing time of the defeat stress experience mouse were measured in the latter 3 minutes of 5 minutes. […]

[5] = tested on: mice (BALB/c and C57BL/6 strains); details: BALB/c strain, fluoxetine 10 mg/kg/day; drug non-administration group about 125-130 sec; cited from earlier work

For `O=C(CF)NC1C(O)SC(CO)[C@@H](O)C1O` (stereo partly drawn) [5S-ManNAcF], the “total immobilization time as compared to the control group” value [1] was “significantly decreased”, the “total immobilization time as compared to the control group” value ([2]; 0.1 mmol/L in saline, intracerebroventricular by osmotic pump for one week, vs saline) was “significantly decreased” and the “effect on total immobilization time, comparison of concentrations” value ([2]; 0.1 mmol/L vs 1 mmol/L, intracerebroventricular for one week) was “tendency of a higher effect at a concentration of 0.1 mmol/L than a high dose of 1 mmol/L”.

With `CC(=O)N[C@@H]1C(O)O[C@H](CO)[C@@H](O)[C@@H]1O` (stereo partly drawn) [ManNAc, N-acetyl-D-mannosamine] the total immobilization time [3] was “about 1 min”, the “contact zone intrusion number” value [4] was “a significant difference was not found” and the “sniffing time (sniffing behavior)” value ([4]; water group about 20 sec or below, stress non-experience group about 30 sec) was “about 30 sec”.

In the case of `CNCCC(Oc1ccc(C(F)(F)F)cc1)c1ccccc1` (stereo not shown) [fluoxetine], the immobilization time [5] is listed as “about 100 sec”.
